According to patent publication US9163040B2, “Substituted bisphenyl butanoic phosphonic acid derivatives as NEP inhibitors” (NOVARTIS AG, priority 2013, dated 2015):

Columns and labels:
[1] = tested on: Aβ(1-40) peptide concentrations in cerebrospinal fluid; assay: Aβ model: CSF Aβ after oral dosing, related to plasma ANP increase by exposure-response regression; format: in vivo, rat; conditions: rats, p.o.; for CSF Aβ (% vehicle control): 5 hr post-dosing; for fold higher % increases in CSF Aβ compared with Example 1: plasma ANP 200 to 240% of baseline
Description: The relative CNS and peripheral therapeutic activities of NEP inhibitors were evaluated in two nonclinical animal models. Compounds or their vehicle were administered orally to conscious rats, and either the increase in Aβ(1-40) peptide concentrations in cerebrospinal fluid (CSF; “Aβ model”) or the increase in plasma levels of the NEP substrate, atrial natriuretic peptide (ANP; “ANP potentiation model”) were determined. Thus, NEP inhibitors that elicit no or small increases in CSF Aβ at a given increase in plasma ANP may have an advantage over ones that trigger large elevations in Aβ.
CNS effects of NEP inhibitors were assessed in a different rat model (“Aβ model”). In this study, we have measured cerebrospinal fluid (CSF) levels of Aβ as a sensitive indicator of CNS Aβ concentrations (Kwasi G. Mawuenyega, 2010, Science, Vol 330, 1774)).
Experiments were conducted in naïve adult, male, WH rats purchased from Charles River Labs (body weights: 495±53 g, mean±SD; age: 8.5-12 months) that were housed and fed as described above. Rats were treated by oral gavage with 1 mL/kg of vehicle (0.5% methylcellulose+0.1% Tween 80) or a selected dose of NEP inhibitor between 7:30 and 10:00 am. Five hours later, rats were anesthetized with isoflurane, a laparotomy was performed, and an abdominal aortic blood sample was obtained on EDTA. Blood samples were centrifuged at 4° C. and 20 K g to separate plasma. Plasma samples were aliquoted and frozen (−70° C.) for later analysis of plasma compound levels. After exsanguination of the rat, the skin and muscle overlying the cisterna magna were retracted. A sample of CSF was collected by direct needle puncture through the exposed dura into the cisterna magna. CSF was transferred to pre-chilled (on ice) low-binding tubes (Protein LoBind tubes, 1.5 mL, Order No. 022431081, Eppendorf) using low-binding pipette tips (VWR Catalog #37001-164) as quickly as possible to minimize Aβ aggregation and adherence to the devices. CSF samples were frozen (−70° C.) for later analysis of Aβ levels
Aβ40 in CSF was quantified using the MesoScale Discovery (MSD, Gaithersburg, Md.) 96-well MULTI-ARRAY Human/Rodent (4G8) Aβ40 Ultra-Sensitive Kit (K110FTE-2). The assay was done according to the manufacturer's instructions except for the standard curve and the sample preparation. A-10 μL aliquot of each CSF sample was mixed with 190 μL 1% BSA/1× Tris solution (“Blocker A” from kit) for a 1:20 CSF dilution. Synthetic Aβ1-40 peptide (from kit) was serially diluted in 1% BSA/1× Tris solution to obtain standards from 10,000-10 pg/mL for an 8-point standard curve.
MSD MULTI-SPOT Aβ40 peptide plates from the kit were incubated for 1 hour after pipetting 150 μL/well 1% BSA/1× Tris solution. The plates were washed 3 times with 400 μL 1× Tris wash buffer (from kit) using a BioTek EL406 automated plate washer (Winooski, Vt.). For CSF samples and standards, 25 μL of a 1×SULFO-TAG 4G8 detection antibody/1× “Blocker G”/1% BSA/1× Tris solution (“detection antibody solution” from kit) was pipetted into the plate. CSF samples and standards were pipetted at 25 μL/well into the plates immediately following detection antibody solution additions. The plates were incubated for 2 hours and washed 3 times with 400 μL 1× Tris wash buffer using the EL406 automated plate washer. “Read buffer T” (from kit), 1×150 μL/well, was pipetted into the plates. The MSD plates were read immediately on the MSD SECTOR Imager 6000 reader.
Standards were assayed in triplicate. CSF samples were assayed in duplicate. Curve fitting, back-calculation, % recovery, and interpolation of sample concentrations were performed using MSD DISCOVERY WORKBENCH Data Analysis Tools 3.0 Software. Signal generated by the standards was plotted and fit using the 4-parameter logistical curve fitting option with a 1/y^2 weighting function. Sample pg/mL concentrations were interpolated from the fit curve. […]

[2] = molecular target: recombinant human neutral endopeptidase (Homo sapiens (Human), UniProt P08473); assay: in vitro inhibition of recombinant human neutral endopeptidase (fluorescence lifetime assay); format: biochemical; conditions: 1 hour pre-incubation, read after 1 hour at room temperature, pH 7.4; read-out: Human NEP IC50
Source text: The activity of a compound according to the present invention can be assessed by the following in vitro and in vivo methods and/or by the following in vitro and in vivo methods well-described in the art. See Doering K, Meder G, Hinnenberger M, Woelcke J, Mayr L M, Hassiepen U, (2009) “A fluorescence lifetime-based assay for protease inhibitor profiling on human kallikrein 7”, Biomol Screen, January; 14(1):1-9.
In particular, the in vitro inhibition of recombinant human neutral endopeptidase can be determined as follows:
Recombinant human neutral endopeptidase (expressed in insect cells and purified using standard methods, final concentration 7 pM) is pre-incubated with test compounds at various concentrations for 1 hour at room temperature in 10 mM sodium phosphate buffer at pH 7.4, containing 150 mM NaCl and 0.05% (w/v) CHAPS. The enzymatic reaction is started by the addition of a synthetic peptide substrate Cys(PT14)-Arg-Arg-Leu-Trp-OH to a final concentration of 0.7 μM. Substrate hydrolysis leads to an increase in fluorescence lifetime (FLT) of PT14 measured by means of a FLT reader as described by Doering et al. (2009) as referenced supra. The effect of the compound on the enzymatic activity was determined after 1 hour (t=60 min) incubation at room temperature. […]

[3] = at plasma compound concentration corresponding to plasma ANP 200 % baseline
[4] = at plasma compound concentration corresponding to plasma ANP 210 % baseline
[5] = at plasma compound concentration corresponding to plasma ANP 220 % baseline
[6] = at plasma compound concentration corresponding to plasma ANP 230 % baseline
[7] = at plasma compound concentration corresponding to plasma ANP 240 % baseline

Chain of recombinant human neutral endopeptidase (P08473 whole entry): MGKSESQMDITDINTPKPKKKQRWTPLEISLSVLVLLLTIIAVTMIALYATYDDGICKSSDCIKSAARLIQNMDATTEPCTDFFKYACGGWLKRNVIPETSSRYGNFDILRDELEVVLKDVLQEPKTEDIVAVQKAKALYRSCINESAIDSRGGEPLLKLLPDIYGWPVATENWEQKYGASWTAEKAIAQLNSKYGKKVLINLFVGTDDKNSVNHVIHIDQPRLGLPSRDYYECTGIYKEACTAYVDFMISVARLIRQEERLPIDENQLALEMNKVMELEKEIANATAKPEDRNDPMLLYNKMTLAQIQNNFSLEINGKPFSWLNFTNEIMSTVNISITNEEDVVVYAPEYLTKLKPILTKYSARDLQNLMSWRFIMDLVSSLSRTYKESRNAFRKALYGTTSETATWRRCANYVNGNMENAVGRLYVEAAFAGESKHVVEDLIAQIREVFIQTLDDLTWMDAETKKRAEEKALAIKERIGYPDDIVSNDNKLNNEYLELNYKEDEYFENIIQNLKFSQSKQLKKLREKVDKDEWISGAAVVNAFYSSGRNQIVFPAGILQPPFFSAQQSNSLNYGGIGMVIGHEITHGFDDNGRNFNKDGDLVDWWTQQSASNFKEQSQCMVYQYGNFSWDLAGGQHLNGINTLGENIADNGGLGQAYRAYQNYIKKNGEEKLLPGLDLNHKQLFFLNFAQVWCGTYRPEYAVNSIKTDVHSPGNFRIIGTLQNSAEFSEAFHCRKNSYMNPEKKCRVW

Row | SMILES | CSF Aβ (% vehicle control) [1, 3] | CSF Aβ (% vehicle control) [1, 4] | CSF Aβ (% vehicle control) [1, 5] | CSF Aβ (% vehicle control) [1, 6] | CSF Aβ (% vehicle control) [1, 7] | fold higher % increases in CSF Aβ compared with Example 1 [1] | IC50 [2]
1 | CCOC(=O)C[C@@H](Cc1ccc(-c2cccc(Cl)c2)cc1)NC(=O)CCC(=O)O [Example 1-2 (WO2010/136493)] | 225 % vehicle control | 242 % vehicle control | 260 % vehicle control | 211 % vehicle control | 295 % vehicle control | 5- to 9 fold | 
2 | CCOC(=O)C[C@@H](Cc1ccc(-c2cc(Cl)ccc2F)cc1)NC(=O)CCC(=O)O [Example 1-17 (WO2010/136493)] | 156 % vehicle control | 179 % vehicle control | 202 % vehicle control | 225 % vehicle control | 248 % vehicle control | 4 fold | 
3 | CC(OC(=O)C[C@@H](Cc1ccc(-c2cc(Cl)ccc2F)cc1)NC(=O)CCP(=O)(O)O)OC(=O)OC1CCCCC1 (stereo partly drawn) [Example 1] | 114 % vehicle control | 120 % vehicle control | 126 % vehicle control | 132 % vehicle control | 139 % vehicle control |  | 
4 | O=C(O)C[C@@H](Cc1ccc(-c2cc(Cl)ccc2F)cc1)NC(=O)CCP(=O)(O)O [Example 2, (R)-4-(5′-chloro-2′-fluoro-[1,1′-biphenyl]-4-yl)-3-(3-phosphonopropanamido)butanoic acid] |  |  |  |  |  |  | 0.11 nM
